{"source": "patent US20250332154A1", "about": "“USE OF NAPHTHOQUINE PHOSPHATE IN PREPARATION OF A MEDICAMENT FOR TREATING AUTOIMMUNE DISEASES” (SHANGHAI PHARMACEUTICALS INDUSTRY CO., LTD, priority 2022, published 2025)", "key": {"[1]": {"test_system": "mouse whole spleen lymphocytes (ConA-induced T cell activation and proliferation)", "experiment": "ConA-induced lymphocyte proliferation assay (3H-thymidine)", "type": "cell-based", "details": "for IC50: ConA 1 μg/ml, 48 hours, 3H-thymidine, read-out: ConA IC50", "procedure": "(§1) BALB/c mice were sacrificed by cervical dislocation, and spleens were aseptically excised to prepare whole spleen lymphocytes. The cells were adjusted to the required concentration.\n(§2) A suspension of mouse spleen lymphocytes was inoculated into a 96-well plate at 5×10^5/well, and ConA (final concentration: 1 μg/ml) or LPS (final concentration: 10 μg/ml) and the above 10 concentration gradients of the compound were added. Corresponding cell control wells without ConA and LPS, as well as medicament-free stimulated control wells, were set up. The cells were cultured in a 37° C., 5% CO2 incubator for 48 hours. Eight hours before the end of the culture, ^3H-thymidine was added, and the culture continued until the end of the experiment (i.e., the aforementioned 48 hours). The cells were collected onto glass fiber membranes using a cell collector.\n(§3) ConA and LPS, as mitogens, stimulated proliferation and differentiation of T and B lymphocytes, respectively. This process is similar to the activation process of lymphocytes in vivo. Therefore, mitogen-induced lymphocyte proliferation is commonly used as an indicator to evaluate functionality of lymphocytes."}, "[2]": {"experiment": "Non-specific cytotoxicity assay (MTT), mouse spleen lymphocytes", "type": "cell-based", "details": "BALB/c, mouse, mouse whole spleen lymphocytes", "procedure": "BALB/c mice were sacrificed by cervical dislocation, and spleens were aseptically excised to prepare whole spleen lymphocytes. The cells were adjusted to the required concentration. The compound concentrations started at 250 μM and was diluted with a 4-fold gradient to obtain 10 concentrations: 250, 62.5, 15.625, 3.906, 0.977, 0.244, 0.061, 0.015, 0.004 and 0.001 μM.\nA suspension of mouse spleen lymphocytes was inoculated into a 96-well plate at 8×10^5/well, and the above 10 concentration gradients of the compound were added. A corresponding cell control (i.e. spleen lymphocyte culture system without compound) and a RPMI 1640 culture medium background control (blank culture medium control) were set up. The cells were cultured in a 37° C., 5% CO2 incubator for 48 hours. Four hours before the end of the culture, 20 μl of 5 mg/ml MTT solution was added, and the reaction continued until the end of the culture (i.e. the aforementioned 48 hours). The supernatant was aspirated and discarded, 200 μl DMSO was added to each well to dissolve the crystals. […]. The absorbance value was measured at […] with a microplate reader (Spectra Max 190, Molecular Devices)."}, "IgM": {"test_system": "IgM", "experiment": "IgM secretion by TLRs-L-stimulated purified mouse B cells (ELISA)", "type": "cell-based", "details": "B-cell, 120 h, stimulant TLR4-L 10 μg/ml", "procedure": "(§4) BALB/c mice were sacrificed by cervical dislocation, and spleens were aseptically excised to prepare spleen lymphocytes. The cells were adjusted to 1×10^8 cells/ml, blocked with 2.4G2 (final concentration: 10 μg/ml) for 20 min, cultured with PE-CD19 (final concentration: 5 μg/ml) for 20 min, washed with MACS buffer, centrifuged at 4° C., 300G for 10 min, 100 μl anti-PE beads were added per 1×10^8 cells, incubated with 900 μl MACS buffer for 15 min, washed with MACS buffer, centrifuged at 4° C., 300G for 10 min. The supernatant was discarded. 500 μl MACS buffer was added per 1×10^8 cells to resuspend the cells. MACS column was used for separation. Magnetically labeled cells were retained on the column. The MACS column was removed from the magnetic field and then eluted.\n(§5) A suspension of purified mouse B cells was inoculated into a 96-well plate at 4×10^5/well. Hydroxychloroquine sulfate was diluted with a 2-fold gradient into 3 concentrations, starting from 8 μM: 8, 4 and 2 μM. Naphthoquine phosphate was diluted with a 2-fold gradient into 3 concentrations starting from 0.5 μM.: 0.5, 0.25 and 0.125 μM. […] After the end of the culture, the cell culture supernatants were collected, and the levels of IgG and IgM were measured by ELISA."}, "[3]": {"test_system": "mouse whole spleen lymphocytes (LPS-induced B cell activation and proliferation)", "experiment": "LPS-induced lymphocyte proliferation assay (3H-thymidine)", "type": "cell-based", "details": "for IC50: LPS 10 μg/ml, 48 hours, 3H-thymidine, read-out: LPS IC50", "procedure": "as §1, §2, §3"}, "IL-6 [4]": {"test_system": "IL-6", "experiment": "IL-6 secretion by TLRs-L-stimulated mouse whole spleen lymphocytes (ELISA)", "type": "cell-based", "details": "Lymphocyte, 48 h", "procedure": "(§6) BALB/c mice were sacrificed by cervical dislocation, and spleens were aseptically excised to prepare whole spleen lymphocytes. The cells were adjusted to 5×10^6 cells/ml. Hydroxychloroquine sulfate was diluted with a 3-fold gradient into 3 concentrations starting from 30 μM: 30, 10 and 3 μM; naphthoquine phosphate was diluted with a 3-fold gradient into 3 concentrations starting from 10 μM: 10, 3 and 1 μM.\n(§7) Mouse spleen lymphocytes were inoculated into a 96-well plate at 100 μl/well, and the stimulant TLR4-L (final concentration: 10 μg/ml), TLR7-L (final concentration: 5 μg/ml) or TLR9-L (final concentration: 1 μM) and the compounds diluted with the above concentration gradients were added. A corresponding stimulation control and a cell control (without stimulation) were set up. The cells were cultured in a 37° C., 5% CO2 incubator for 48 hours. After the end of the culture, the cell culture supernatants were collected, and the levels of IL-1β, IL-6, and IL-10 were measured by ELISA."}, "IL-6 [5]": {"test_system": "IL-6", "experiment": "IL-6 production by LPS-induced RAW264.7 cells (ELISA)", "type": "cell-based, mouse", "details": "for production of IL-6: LPS-induced RAW264.7, in words; for IC50: Mus musculus, LPS 10 μg/ml, RAW264.7", "procedure": "(§8) RAW264.7 cells were inoculated into a 96-well plate at 1×10^5/well and allowed to adhere to the wall for 6 hours in a 37° C., 5% CO2 incubator. […] After the cells adhered to the wall, the stimulant LPS (final concentration: 10 μg/ml) and the gradient-diluted compounds were added. A corresponding stimulation control and a cell control (without stimulation) were set up. After the end of the culture, the cell culture supernatants were collected, and the levels of TNF-α, IL-1β and IL-6 were measured by ELISA."}, "IgG": {"test_system": "IgG", "experiment": "IgG secretion by TLRs-L-stimulated purified mouse B cells (ELISA)", "type": "cell-based", "details": "B-cell, 120 h, stimulant TLR4-L 10 μg/ml", "procedure": "as §4, §5"}, "IL-1β [6]": {"test_system": "IL-1β", "experiment": "IL-1β secretion by TLRs-L-stimulated mouse whole spleen lymphocytes (ELISA)", "type": "cell-based", "details": "Lymphocyte, 48 h, read-out: IB-1β IC50", "procedure": "as §6, §7"}, "IL-1β [7]": {"test_system": "IL-1β", "experiment": "IL-1β production by LPS-induced RAW264.7 cells (ELISA)", "type": "cell-based, mouse", "details": "for IC50: Mus musculus, LPS 10 μg/ml, RAW264.7, read-out: IB-1β IC50; for production of LPS-induced IL-1β: RAW264.7, in words", "procedure": "as §8"}, "[8]": {"details": "listed as Hydroxychloroquine Sulfate (Zhongxi Sunve)"}}, "note": "Where a name gives a salt, the structure may show the parent alone. Read-outs that look alike come from different tables or passages of the source.", "data": [{"compound": "CCN(CCO)CCCC(C)Nc1ccnc2cc(Cl)ccc12", "note": "(stereo not shown) [Hydroxychloroquine Sulfate, hydroxychloroquine sulfate]", "values": [{"measurement": "IC50", "setting": "[1]; [8]", "result": 17, "unit": "µM"}, {"measurement": "IC50", "setting": "[1]; Mus musculus, Lymphocyte", "result": 17.1, "unit": "µM"}, {"measurement": "CC50 at 48 h", "setting": "[2]", "result": 25.2, "unit": "µM"}, {"measurement": "IC50", "setting": "IgM", "result": "> 8", "unit": "µM"}, {"measurement": "IC50", "setting": "[3]; [8]", "result": 14.9, "unit": "µM"}, {"measurement": "IC50", "setting": "[3]; Mus musculus, Lymphocyte", "result": 14.9, "unit": "µM"}, {"measurement": "IC50", "setting": "IL-6 [4]; stimulant TLR4-L 10 μg/ml", "result": 15.3, "unit": "µM"}, {"measurement": "IC50", "setting": "IL-6 [4]; stimulant TLR7-L 5 μg/ml", "result": 1.91, "unit": "µM"}, {"measurement": "IC50", "setting": "IL-6 [4]; stimulant TLR9-L 1 μM", "result": 3.92, "unit": "µM"}, {"measurement": "production of IL-6", "setting": "IL-6 [5]", "result": "no significant effect"}, {"measurement": "IC50", "setting": "IL-6 [5]", "result": 16.5, "unit": "µM"}, {"measurement": "IC50", "setting": "IgG", "result": "> 8", "unit": "µM"}, {"measurement": "IC50", "setting": "IL-1β [6]; stimulant TLR4-L 10 μg/ml", "result": 32, "unit": "µM"}, {"measurement": "IC50", "setting": "IL-1β [6]; stimulant TLR9-L 1 μM", "result": 41.6, "unit": "µM"}, {"measurement": "IC50", "setting": "IL-1β [7]", "result": 3.5, "unit": "µM"}, {"measurement": "production of LPS-induced IL-1β", "setting": "IL-1β [7]", "result": "significantly inhibited"}]}, {"compound": "CC(C)(C)NCc1cc(Nc2ccnc3cc(Cl)ccc23)c2c(c1O)CCCC2.O=P(O)(O)O.O=P(O)(O)O", "note": "[Naphthoquine Phosphate, Naphthoquine phosphate]", "values": [{"measurement": "IC50", "setting": "[1]; Mus musculus, Lymphocyte", "result": 0.41, "unit": "µM"}, {"measurement": "effect on ConA-induced T cell activation and proliferation", "setting": "[1]; in words", "result": "significant inhibitory activity"}, {"measurement": "CC50 at 48 h", "setting": "[2]", "result": 1.45, "unit": "µM"}, {"measurement": "IC50", "setting": "IgM", "result": 0.21, "unit": "µM"}, {"measurement": "IC50", "setting": "[3]; Mus musculus, Lymphocyte", "result": 0.08, "unit": "µM"}, {"measurement": "effect on LPS-induced B cell activation and proliferation", "setting": "[3]; in words", "result": "significant inhibitory activity"}, {"measurement": "IC50", "setting": "IL-6 [4]; stimulant TLR4-L 10 μg/ml", "result": 0.63, "unit": "µM"}, {"measurement": "IC50", "setting": "IL-6 [4]; stimulant TLR7-L 5 μg/ml", "result": 0.007, "unit": "µM"}, {"measurement": "IC50", "setting": "IL-6 [4]; stimulant TLR9-L 1 μM", "result": 0.29, "unit": "µM"}, {"measurement": "production of IL-6", "setting": "IL-6 [5]", "result": "no significant effect"}, {"measurement": "IC50", "setting": "IL-6 [5]", "result": "> 10", "unit": "µM"}, {"measurement": "IC50", "setting": "IgG", "result": 0.41, "unit": "µM"}, {"measurement": "IC50", "setting": "IL-1β [6]; stimulant TLR4-L 10 μg/ml", "result": 3.35, "unit": "µM"}, {"measurement": "IC50", "setting": "IL-1β [7]", "result": 1.59, "unit": "µM"}, {"measurement": "production of LPS-induced IL-1β", "setting": "IL-1β [7]", "result": "significantly inhibited"}]}]}
